Assay results reported in patent US20190031618A1, “BENZIMIDAZOLE DERIVATIVES USEFUL AS CB-1 INVERSE AGONISTS” (Janssen Pharmaceutica NV, priority 2015, published 2019).

Experiments:
[1] = biological target: Human CB1R (Cannabinoid receptor 1) (Homo sapiens, UniProt P21554); assay: CB-1 in vitro cAMP (HTRF) assay; type: cell-based; settings: HEK cells, cAMP HTRF, 250 nM forskolin; mean where tested more than once; read-out: CB1 HEK_cAMP EC50
Summary of the method: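 Intracellular cAMP from HTRF ratio (d2-cAMP vs Eu-cryptate anti-cAMP), converted to nM via per-plate standards, in stable human CB1R HEK-293 cells.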

[2] = biological target: Human CB2R (Cannabinoid receptor 2) (Homo sapiens, UniProt P34972); assay: CB-2 in vitro cAMP (HTRF) assay; type: cell-based; settings: HEK cells, cAMP HTRF, 250 nM forskolin; mean where tested more than once; read-out: CB2 HEK_cAMP EC50
Human CB2R (Cannabinoid receptor 2), sequence (P34972 whole entry): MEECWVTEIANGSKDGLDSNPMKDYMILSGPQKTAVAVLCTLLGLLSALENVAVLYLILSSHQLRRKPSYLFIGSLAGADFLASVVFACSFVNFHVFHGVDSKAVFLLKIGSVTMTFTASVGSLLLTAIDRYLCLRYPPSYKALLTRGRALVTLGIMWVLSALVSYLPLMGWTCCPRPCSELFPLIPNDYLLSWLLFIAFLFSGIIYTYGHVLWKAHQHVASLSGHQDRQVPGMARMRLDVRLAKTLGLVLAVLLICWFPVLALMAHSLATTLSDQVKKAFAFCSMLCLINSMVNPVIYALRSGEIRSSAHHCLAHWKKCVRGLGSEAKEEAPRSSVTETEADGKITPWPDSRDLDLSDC
Summary of the method: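 HEK-293 cells stably expressing receptor, plated overnight at 4E5 cells/mL, tested with 1/3 serial dilutions of compound in HBSS/HEPES/BSA buffer with 0.5 mM IBMX and forskolin (diluted to 1.5 μM in buffer). cAMP measured by competitive HTRF immunoassay (d2-cAMP, cryptate anti-cAMP), signal inversely proportional to cAMP.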

Human CB1R (Cannabinoid receptor 1), sequence (P21554 whole entry): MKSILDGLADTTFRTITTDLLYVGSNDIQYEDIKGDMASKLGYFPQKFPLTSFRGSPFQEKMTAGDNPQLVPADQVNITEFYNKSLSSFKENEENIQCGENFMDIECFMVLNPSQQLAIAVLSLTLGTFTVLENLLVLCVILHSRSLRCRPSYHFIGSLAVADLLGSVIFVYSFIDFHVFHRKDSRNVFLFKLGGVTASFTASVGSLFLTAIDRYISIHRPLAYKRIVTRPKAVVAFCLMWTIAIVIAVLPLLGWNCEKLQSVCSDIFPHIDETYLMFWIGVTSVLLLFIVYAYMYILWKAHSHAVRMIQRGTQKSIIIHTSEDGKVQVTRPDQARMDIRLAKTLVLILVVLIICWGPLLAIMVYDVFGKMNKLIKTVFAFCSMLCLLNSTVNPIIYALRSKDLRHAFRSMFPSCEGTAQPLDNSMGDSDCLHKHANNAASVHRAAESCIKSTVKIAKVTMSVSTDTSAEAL

| EC50 [1] | EC50 [2] | SMILES |
| --- | --- | --- |
| 755 nM | > 10000 nM | Clc1ccc(C(c2ccc3nc(-c4ccsc4)n(-c4cccc(Cl)c4)c3c2)c2nccs2)cc1 (stereo not drawn) [Example 375] |
| 621 nM | > 10000 nM | O=S(=O)(N1CCC(Cn2cnc3ccc(C(c4ccc(Cl)cc4)c4nccs4)cc32)CC1)C(F)(F)F (stereo not drawn) [Example 322] |
| 7430 nM | > 10000 nM | O=S(=O)(N1CCC(n2c(CO)nc3ccc(C(O)(c4ccc(Cl)cc4)c4ccc(Cl)cc4)cc32)CC1)C(F)(F)F [Example 293] |
| > 10000 nM | > 10000 nM | CCc1csc(C(c2ccc(Cl)cc2)c2ccc3ncn(Cc4ccc(Cl)cc4)c3c2)n1 (stereo not drawn) [Example 460] |
| 315 nM | > 10000 nM | Clc1ccc(C(c2ccc3ncn(CCc4cccc(Cl)c4)c3c2)c2nccs2)cc1 (stereo not drawn) [Example 438] |
| 137 nM | > 10000 nM | O=S(=O)(N1CCC(n2c(C3CCCC3)nc3ccc(C(c4ccc(Cl)cc4)c4nccs4)cc32)CC1)C(F)(F)F (stereo not drawn) [Example 395] |
| 20.1 nM | > 10000 nM | O=S(=O)(c1ccccc1O)N1CCC(n2c(C3CC3)nc3ccc(C(c4ccc(Cl)cc4)c4ccc(Cl)cc4)cc32)CC1 [Example 258] |
| 569 nM | > 10000 nM | Clc1ccc(C(c2ccc3nc(C4CC4)n(Cc4ccccn4)c3c2)c2nccs2)cc1 (stereo not drawn) [Example 403] |
| 221 nM | 91 nM | CC(C)Cc1nc2ccc(C(c3ccc(Cl)cc3)c3nccs3)cc2n1C1CCN(S(=O)(=O)C(F)(F)F)CC1 (stereo not drawn) [Example 396] |
| 1180 nM | > 10000 nM | CCOC(=O)N1CCC(n2c(-c3nccs3)nc3ccc(C(c4ccc(Cl)cc4)c4nccs4)cc32)CC1 (stereo not drawn) [Example 419] |
| 5 nM | 9000 nM | O=S(=O)(N1CCC(O)(Cn2c(C3CC3)nc3ccc(C(c4ccc(Cl)cc4)c4ccc(Cl)cc4)cc32)CC1)C(F)(F)F [Example 295] |

The next lines start with the molecule.

| SMILES | EC50 [1] | EC50 [2] |
| --- | --- | --- |
| O=C(O)c1cccc(-c2ccc(CCn3c(C4CC4)nc4ccc(C(c5ccc(Cl)cc5)c5ccc(Cl)cc5)cc43)cc2)c1 [Example 24] | 1940 nM | 7300 nM |
| O=C(O)c1ccc(C(F)(F)F)c(CN2CCC(n3c(C4CC4)nc4ccc(C(c5ccc(Cl)cc5)c5ccc(Cl)cc5)cc43)CC2)c1 [Example 80] | 86.6 nM | 11400 nM |
| NC(=O)c1cccc(CN2CCC(n3c(C4CC4)nc4ccc(C(c5ccc(Cl)cc5)c5ccc(Cl)cc5)cc43)CC2)n1 [Example 104] | 12.1 nM | 6000 nM |
| NC(=O)c1ccc(CN2CCC(n3c(C4CC4)nc4ccc(C(c5ccc(Cl)cc5)c5ccc(Cl)cc5)cc43)CC2)o1 [Example 131] | 8 nM | 6500 nM |
| O=C(O)c1ccc(S(=O)(=O)N2CCC(n3c(C4CC4)nc4ccc(C(c5ccc(Cl)cc5)c5ccc(Cl)cc5)cc43)CC2)cc1Cl [Example 253] | 4.7 nM | 2420 nM |
| Nc1cccc(S(=O)(=O)N2CCC(n3c(C4CC4)nc4ccc(C(c5ccc(Cl)cc5)c5ccc(Cl)cc5)cc43)CC2)c1 [Example 52] | 9.2 nM | > 10000 nM |
| CNC(=O)c1cccc(S(=O)(=O)N2CCC(n3c(C4CC4)nc4ccc(C(c5ccc(Cl)cc5)c5ccc(Cl)cc5)cc43)CC2)c1 [Example 186] | 25.3 nM | > 10000 nM |
| O=C(O)c1ccc(CN2CCC(n3c(C4CC4)nc4ccc(C(c5ccc(Cl)cc5)c5ccc(Cl)cc5)cc43)CC2)cn1 [Example 106] | 60.1 nM | > 10000 nM |
| O=C(O)c1ccc(Cn2c(C3CC3)nc3ccc(C(c4ccc(Cl)cc4)c4ccc(Cl)cc4)cc32)cc1 [Example 132] | > 10000 nM | > 10000 nM |
| Cc1ccc(S(=O)(=O)N2CCC(n3c(C4CC4)nc4ccc(C(c5ccc(Cl)cc5)c5ccc(Cl)cc5)cc43)CC2)cc1C(=O)O [Example 188] | 160 nM | > 10000 nM |
| O=C(O)COc1ccc(N2CCC(n3c(C4CC4)nc4ccc(C(c5ccc(Cl)cc5)c5ccc(Cl)cc5)cc43)CC2)cc1 [Example 152] | 1590 nM | 6400 nM |
| Clc1ccc(C(c2ccc(Cl)cc2)c2ccc3nc(C4CC4)n(CCc4cccc(Br)c4)c3c2)cc1 [Example 20] | 15.6 nM | > 10000 nM |
| O=C(O)c1cc(CN2CCC(n3c(C4CC4)nc4ccc(C(c5ccc(Cl)cc5)c5ccc(Cl)cc5)cc43)CC2)ccc1F [Example 95] | 11.2 nM | > 10000 nM |
| NC(=O)CS(=O)(=O)N1CCC(n2c(C3CC3)nc3ccc(C(c4ccc(Cl)cc4)c4ccc(Cl)cc4)cc32)CC1 [Example 247] | 128 nM | > 10000 nM |
| O=C(O)c1cc(OCCn2c(C3CC3)nc3ccc(C(c4ccc(Cl)cc4)c4ccc(Cl)cc4)cc32)cc(C(F)(F)F)c1 [Example 16] | 173 nM | 698 nM |
| O=C(O)c1cccc(-c2cccc(CCn3c(C4CC4)nc4ccc(C(c5ccc(Cl)cc5)c5ccc(Cl)cc5)cc43)c2)c1 [Example 11] | 49.4 nM | 4970 nM |
